“Also recorded” adds a separate entry of the source.
How the values were obtained:
HFKTs (KTN) = assay: Conditions improving HFKT reprogramming: validated iPSC colonies; format: cell-based, human; conditions: for Validated iPSCs colonies: frozen virus, reduced virus concentration
[1] = system: HFKT-iPSC-CMs (β-adrenergic signaling pathway); assay: [Ca2+]i transients and contractions of HFKT-iPSC-derived cardiomyocytes; format: cell-based, human; conditions: HFKT-iPSC-CMs clone KTR13, 37 day-old EB, stimulated at 0.6 Hz; effect within 2-3 min
Experimental: [Ca^2+]i transients and contractions were measured in small dissociated contracting areas of EBs by means of fura-2 fluorescence (Biotium, Hayward, Calif., USA) and a video edge detector, respectively, as previously described (Dolnikov et al. 2006; Sedan et al. 2008).
In order to investigate the basic properties of the intracellular Ca^2+ ([Ca^2+]i) handling machinery and the mechanical function, [Ca^2+]I transients and contractions were recorded from small contracting clusters of the HFKT-iPSC-CMs by means of fura-2 fluorescence and a video edge detector, respectively.

Compound | Validated iPSCs colonies (HFKTs (KTN); KTN + Cherry (3 reprogramming factors, no c-Myc)) | Validated iPSCs colonies (HFKTs (KTN); KTN + Stemcca (4 reprogramming factors)) | Generation of iPSCs with reduced number of factors (HFKTs (KTN); polycistronic vector with Oct4, Klf4 and Sox2, without c-Myc (cherry vector)) | Effect on [Ca2+]i transient and contraction amplitudes [1]
Cc1c[nH]c(-c2cnc(NCCNc3ccc(C#N)cn3)nc2-c2ccc(Cl)cc2Cl)n1 [CHIR99021] | 6 | 2 | able to generate iPSCs with no c-Myc | –
CC(C)NCC(O)c1ccc(O)c(O)c1 (stereo not shown) [isoproterenol] | – | – | – | marked concentration-dependent positive inotropic effect; also recorded: increase in contraction amplitude

— patent US20130130387A1, “METHOD FOR GENERATING INDUCED PLURIPOTENT STEM CELLS FROM KERATINOCYTES DERIVED FROM PLUCKED HAIR FOLLICLES” (Technion Research & Development Foundation Limited, priority 2010, published 2013)
